# Measurements from patent publication US11833139B2 (priority 2019, dated 2023).
# Read-outs that look alike come from different tables or passages of the source.
# Columns and labels:
# A. baumannii HUMC1 = experiment: MIC by broth microdilution (CLSI), carbapenem-resistant clinical isolate HUMC1; type: cell-based, Acinetobacter baumannii; conditions: Acinetobacter baumannii, read-out: MIC
# Protocol: (§1) Two A. baumannii isolates were used in this example: HUMC1 (BV374) (Spellberg/Luna Laboratory, University of Southern California, Los Angeles, Calif.) and UNT091-1 (BV378) (UNT Health Science Center, Fort Worth, Tex.). The HUMC1 isolate is a hyper-virulent drug-resistant clinical strain isolated from a blood-stream infection. […] The isolates were stored at −80° C. as 20% (v/v) glycerol cultures.
# (§2) MICs were determined by the broth microdilution method following the guidelines of the Clinical Laboratory Standards Institute (CLSI) using RPMI supplemented with […] cationic-adjusted Muller Hinton broth (CA-MHB) as assay medium. To prepare the bacterial inocula, 3-5 colonies of bacterial strains from over-night growth on ChromAgar orientation plates (CHROMagar Cat. No. RT412) were suspended in 5 mL saline. The turbidity of the bacterial suspension was adjusted to 0.5 McFarland units (equal to an optical density at 610 nm (OD610) to 0.08-0.1). This suspension was diluted 200-fold in RPMI supplemented with 10% (v/v) FCS to reach a final concentration of […] colony forming units (CFU)/mL and was used to inoculate the microtiter plates.
# (§3) Serial 2-fold dilutions of the antibiotics were prepared in a separate 96-well plate polypropylene U-bottom plate (Ratiolab Cat. No. 6018111) in RPMI supplemented with 10% (v/v) FCS at 10-fold of the final test concentrations and 10 μl of the dilutions were transferred to new 96-well polystyrene U-bottom microtiter plates with a parafilm plate cover.
# (§4) The plates were then inoculated with 90 μL per well of the prepared bacterial suspensions in using a multichannel pipette (Eppendorf), with the first column containing 4 wells each for growth control (no antibiotic). […] The MIC was recorded as the lowest concentration of the compound that inhibited bacterial growth by visual inspection. MICs were determined at least in duplicates and in the case of variations, the higher values are provided.
# A. baumannii UNT093 = experiment: Neutropenic lung infection mouse model (CD-1 mice, intranasal infection); type: in vivo; conditions: UNT093, IV at 2 h post-infection, 24 hours of treatment, doses of <0.5 mg/kg
# Protocol: (§5) After 24 hours of treatment the mice were sacrificed and colony forming units in the lungs were measured.
# A. baumannii UNT091 [1] = experiment: as above; type: in vivo; conditions: UNT091, IV at 2 h post-infection, 24 hours of treatment, doses of <0.5 mg/kg
# Protocol: as §5
# A. baumannii ATCC 17978 = experiment: MIC in fhuE expressing A. baumannii strains (plasmid-based expression, IPTG inducible); type: cell-based, Acinetobacter baumannii; conditions: for MIC: Acinetobacter baumannii
# Description: The fhuE gene (AWC45_RS10145) from the A. baumannii HUMC1 strain was cloned into the E. coli/A. baumannii shuttle plasmid pVT111 under the control of the isopropyl-beta-D-1-thiogalactopyranoside (IPTG) inducible promoter Ptrc-lacO. The resulting plasmid and the original pVT111 plasmid (control) were transferred to the A. baumannii strain ATCC-17978 by conjugation and transconjugants were selected on LB agar plates containing kanamycin.
# [2] = test system: panel of 293 CRAB strains (A. baumannii); experiment: MIC by agar dilution on Muller Hinton Agar, panel of 293 CRAB strains; type: cell-based
# Protocol: The strain panel contained isolates with 10% MDR (n=29), 86% XDR (n=253) and 4% (n=11) PDR phenotypes. Isolates were collected mainly from patients with pneumonia (59%), bloodstream infections (28%), and skin and soft tissue infections (11%) and categorized according to CLSI breakpoints as XDR when […] the antimicrobial classes described by Magiorakos et al. 2011. […] Comparator antibiotics were tested at CLSI standard conditions.
# A. baumannii [3] = experiment: Liquid MIC determination using RPMI supplemented with FCS, clinical panel; type: cell-based; conditions: Acinetobacter baumannii
# Description: All isolates were resistant to carbapenems.
# A. baumannii [4] = experiment: Dose fractionation in a neutropenic mouse model of infection; type: in vivo; conditions: IV q24 h, q12 h or q6 h
# Description: FIG. 5 summarizes the results of dose fractionation experiments in a neutropenic mouse model of infection.
# [5] = test system: A. baumannii ATCC-17978 expressing FhuE V38P; experiment: Complementation assay, plasmid mediated expression of FhuE variants in CA-MHB; type: cell-based; conditions: ATCC-17978 host, 1 mM IPTG
# Description: See, Cadieux, N., Bradbeer, C. & Kadner, R. J. Sequence changes in the ton box region of BtuB affect its transport activities and interaction with TonB protein. J. Bacteriol. 182, 5954-5961 (2000); Funahashi, T. et al. Identification and characterization of an outer membrane receptor gene in Acinetobacter baumannii required for utilization of desferricoprogen, rhodotorulic acid, and desferrioxamine B as xenosiderophores. Biol. Pharm. Bull. 35, 753-760 (2012); the content of each of which is incorporated herein by reference.
# A. baumannii ACC00445 [6] = test system: A. baumannii ACC00445
# Protocol: (§6) A. baumannii clinical isolates were stored at −80° C. as 20% (v/v) in glycerol stock cultures.
# (§7) Selective agar plates were prepared using RPMI powder (Sigma R7755) dissolved at 10.3 g/L with agar at 15 g/L and boiled until complete agar melting. After cooling the media to 45° C., 0.3 g/L L-glutamine (Sigma G7513), 25 mM HEPES (Gibco 15630-056) and 10% (v/v) FCS (Gibco 10500-064) were added.
# (§8) The culture inocula were prepared from a bacterial NaCl suspension at 0.5 McFarland diluted 200-times in 100 mL of RPMI (Sigma R8758)+10% FCS in 500 mL flasks to reach ˜5×10^5 CFU/mL. The flasks were incubated for 24 h at 37° C. under shaking at 220 rpm. After incubation, the cells were pelleted by centrifugation (10 min, 7000 rpm at RT) and re-suspended in 1 mL PBS. […] After incubation at 35° C. for 24 h colonies were counted, and the frequency of resistance was calculated as the ratio between the number of colonies growing on plates with antibiotic and the total colony count of the inocula.
# A. baumannii UNT238 = test system: A. baumannii UNT238
# Protocol: as §6, §7, §8
# A. baumannii UNT091 [7] = test system: A. baumannii UNT091
# Protocol: as §6, §7, §8
# A. baumannii LAC-4 = test system: A. baumannii LAC-4
# Protocol: as §6, §7, §8
# A. baumannii HUMC-1 = conditions: HUMC-1, rifabutin 0.1 mg/L
# Protocol: as §6, §7, §8
# [8] = test system: five clinical A. baumannii strains; conditions: rifabutin concentrations of ≥2 mg/L
# Protocol: as §6, §7, §8
# A. baumannii ACC00445 [9] = experiment: Neutropenic sepsis mouse model (CD-1 mice, IP infection); type: in vivo; conditions: IV at 1 h and 5 h post-infection, 1 mg/kg
# Description: The CD-1 mice were IP infected with A. baumannii ACC00445 strain in the presence of […].
# A. baumannii UNT091 [10] = experiment: MIC by broth microdilution (CLSI), carbapenem-resistant clinical isolate UNT091; type: cell-based, Acinetobacter baumannii; conditions: Acinetobacter baumannii, read-out: MIC
# Protocol: as §1, §2, §3, §4
# A. baumannii [11] = experiment: Target exposures (PK/PD index, sigmoid Emax model) for 1-log reduction in lung CFUs; type: in vivo
# [12] = test system: A. baumannii UNT091-1 ΔfhuE mutant; experiment: Neutropenic lung infection in CD-1 mice, wildtype versus ΔfhuE mutant; type: in vivo; conditions: mice infected with UNT091-1::ΔfhuE, single IV dose at 2 h, burden at 26 hours
# Protocol: FIG. 6 is a graph showing CFU per lung pair in mice inoculated with A. baumannii strains. Neutropenic, female CD-1 mice (5 per group) were inoculated intranasally (t=0 hr) with equivalent titers (6.90 and 6.93 log10 CFU) of A. baumannii UNT091-1 wildtype and A. baumannii UNT091-1 ΔfhuE mutant. The treatment (single IV dose) was administered at 2-hour post-infection and bacterial burden was reported at 26 hours by determining CFU/lung. Furthermore, the effect of RBT was blunted in mice infected with the UNT091-1::ΔfhuE strain supporting the role of fhuE as mediating RBT sensitivity both in vitro and in vivo.
# [13] = Acinetobacter baumannii, iron-chelated nutrient rich MHA (0.1 mM PIH), agar dilution
structure (smiles),measurement,setting,value
CO[C@H]1/C=C/O[C@@]2(C)Oc3c(C)c(O)c4c(c3C2=O)C2=NC3(CCN(CC(C)C)CC3)NC2=C(NC(=O)/C(C)=C\C=C\[C@H](C)[C@H](O)[C@@H](C)[C@@H](O)[C@@H](C)[C@H](OC(C)=O)[C@@H]1C)C4=O [rifabutin],MIC,"A. baumannii HUMC1; HUMC1, HUMC1, RPMI plus 10% FCS (Table 1)",0.002 µg/mL
same,MIC,"A. baumannii HUMC1; HUMC1, HUMC1 parental strain, RPMI + 10% FCS (Table 2)",0.002 µg/mL
same,effect on colony forming units in the lungs,A. baumannii UNT093,potent effect
same,effect on colony forming units in the lungs,A. baumannii UNT091 [1],potent effect
same,MIC,"A. baumannii ATCC 17978; ATCC17978, read-out: rifabutin MIC, FhuE expressing plasmid, CA-MHB 1 mM IPTG",0.002 µg/mL
same,MIC,"A. baumannii ATCC 17978; ATCC17978, read-out: rifabutin MIC, FhuE expressing plasmid, CA-MHB no IPTG",0.016 µg/mL
same,MIC,"A. baumannii ATCC 17978; ATCC17978, read-out: rifabutin MIC, empty plasmid, CA-MHB 1 mM IPTG",2 µg/mL
same,MIC,"A. baumannii ATCC 17978; ATCC17978, read-out: rifabutin MIC, empty plasmid, CA-MHB no IPTG",1 µg/mL
same,MIC,"A. baumannii ATCC 17978; ATCC17978, read-out: rifabutin MIC, no plasmid, CA-MHB 1 mM IPTG",4 µg/mL
same,MIC,"A. baumannii ATCC 17978; ATCC17978, read-out: rifabutin MIC, no plasmid, CA-MHB no IPTG",4 µg/mL
same,MIC lower in fhuE expressing plasmid strain compared to empty plasmid strain,A. baumannii ATCC 17978; in the presence of IPTG,1000 fold
same,MIC50,[2]; [13],0.008 µg/mL
same,MIC90,[2]; [13],1 µg/mL
same,activity,[2]; standard MHA,only marginal activity
same,MIC50,A. baumannii [3],0.004 µg/mL
same,MIC90,A. baumannii [3],2 µg/mL
same,dose fractionation result,A. baumannii [4],clear dose response relationship
same,restoration of potent activity by FhuE V38P expression compared to wildtype FhuE,[5],not able to restore rifabutin potent activity
same,Frequency of Mutational Resistance (FoR),"A. baumannii ACC00445 [6]; ACC00445, rifabutin 0.02 mg/L",1.10E−05
same,Frequency of Mutational Resistance (FoR),"A. baumannii ACC00445 [6]; ACC00445, rifabutin 0.2 mg/L",8.10E−06
same,Frequency of Mutational Resistance (FoR),"A. baumannii ACC00445 [6]; ACC00445, rifabutin 2 mg/L",2.40E−09
same,Frequency of Mutational Resistance (FoR),"A. baumannii ACC00445 [6]; ACC00445, rifabutin 20 mg/L",5.70E−09
same,Frequency of Mutational Resistance (FoR),"A. baumannii UNT238; UNT238, rifabutin 0.2 mg/L",2.30E−05
same,Frequency of Mutational Resistance (FoR),"A. baumannii UNT238; UNT238, rifabutin 2 mg/L",8.80E−10
same,Frequency of Mutational Resistance (FoR),"A. baumannii UNT238; UNT238, rifabutin 20 mg/L",1.60E−08
same,Frequency of Mutational Resistance (FoR),"A. baumannii UNT091 [7]; UNT091, rifabutin 0.02 mg/L",7.80E−06
same,Frequency of Mutational Resistance (FoR),"A. baumannii UNT091 [7]; UNT091, rifabutin 0.2 mg/L",6.40E−06
same,Frequency of Mutational Resistance (FoR),"A. baumannii UNT091 [7]; UNT091, rifabutin 2 mg/L",7.10E−09
same,Frequency of Mutational Resistance (FoR),"A. baumannii UNT091 [7]; UNT091, rifabutin 20 mg/L",7.80E−09
same,Frequency of Mutational Resistance (FoR),"A. baumannii LAC-4; LAC-4, rifabutin 0.2 mg/L",7.00E−05
same,Frequency of Mutational Resistance (FoR),"A. baumannii LAC-4; LAC-4, rifabutin 2 mg/L",5.00E−09
same,Frequency of Mutational Resistance (FoR),"A. baumannii LAC-4; LAC-4, rifabutin 20 mg/L",4.20E−09
same,Frequency of Mutational Resistance (FoR),A. baumannii HUMC-1,1.70E−05
same,frequency of mutational resistance,[8],~10^−9
same,protection against sepsis,A. baumannii ACC00445 [9],protects against sepsis
same,MIC,"A. baumannii UNT091 [10]; UNT091, UNT091, CA-MHB (Table 1)",8 µg/mL
same,MIC,"A. baumannii UNT091 [10]; UNT091, UNT091, RPMI plus 10% FCS (Table 1)",0.002 µg/mL
same,MIC,"A. baumannii UNT091 [10]; UNT091, UNT091 parental strain, RPMI + 10% FCS (Table 2)",0.002 µg/mL
same,Target AUC required to treat,A. baumannii [11]; MIC 0.5 mg/L,5.74 mg·h/L
same,Target Cmax required to treat,A. baumannii [11]; MIC 0.5 mg/L,1.30 mg/L
same,Target AUC required to treat,A. baumannii [11]; MIC 1 mg/L,11.48 mg·h/L
same,Target Cmax required to treat,A. baumannii [11]; MIC 1 mg/L,2.59 mg/L
same,Target AUC required to treat,A. baumannii [11]; MIC 2 mg/L,22.96 mg·h/L
same,Target Cmax required to treat,A. baumannii [11]; MIC 2 mg/L,5.19 mg/L
same,effect on bacterial burden (CFU/lung),[12],blunted
